This is an account of results in patent US7186727B2, “Pyridyl-substituted spiro-hydantoin compounds and use thereof” (Bristol-Myers Squibb Company, priority 2004, dated 2007).

The structures appear in SMILES notation.

This data set in a line: Microsomal liver assay (rate of oxidative metabolism). In kind it is in vitro ADME. To be noted: human liver microsomes; 3 μM test compound, 1 mg/mL microsomal proteins, 37° C. Here is the method: Mouse and rat liver microsomes were purchased from XenoTech LLC (Kansas City, Kans.), and human liver microsomes were obtained from BD Gentest (Woburn, Mass.).
The oxidative metabolism in liver microsomes of various species was studied under the following condition: 3 μM test compound (organic solvent content <0.1%), 1 mg/mL microsomal proteins, 1 mM β-nicotinamide adenine dinucleotide phosphase (β-NADPH), 100 mM phosphate buffer (pH 7.4), and 6.7 MM magnesium chloride. The reaction (n=3) was initiated by the addition of NADPH followed by incubation at 37° C. for 20 min. Aliquots of samples (0.1 mL) were taken at 0, 5, and 20 min, and the reaction was quenched by the addition of three volumes of acetonitrile. Samples were stored at −20° C. until analysis.
The rate of oxidation in liver microsomes was determined from the following equation: rate (nmol/min/mg protein)=k*C0/Cprotein, where k (1/min) is the turnover rate constant estimated from non-linear regression of the percent compound remaining (y)-time (t) curve using the equation y=y0*exp(−k*t); C0 is initial drug concentration (μM), and Cprotein is microsomal protein concentration (mg/mL).
Rates of metabolism are “binned” (classified) as follows: […]

In turn, `CN1C(=O)N(c2cc(Cl)cc(Cl)c2)C(=O)[C@]12CN(c1ccccn1)C[C@H]2c1ccc(C#N)cc1` (relative stereo) [4-[(5S*,9R *)-3-(3,5-dichlorophenyl)-1-methyl-2,4-dioxo-7-pyridin-2-yl-1,3,7-triazaspiro[4.4]non-9-yl]-benzonitrile] showed a rate of metabolism of 0.2 nmol/min/mg.
